We go through 26 compounds from US20180002319A1, “MACROCYCLIC PICOLINAMIDE COMPOUNDS WITH FUNGICIDAL ACTIVITY” (DOW AGROSCIENCES LLC, priority 2014, published 2018).

Read-outs that look alike come from different tables or passages of the source.

One experiment has as its system Zymoseptoria tritici. The experiment can be described thus: Leaf Blotch of Wheat (SEPTTR) fungicidal activity. The settings on record: for pest or weed control at 121.5 g/ha: Low Volume application, 121.5 g/H. Type of experiment: in vivo. Summed up:
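Wheat seedlings (Yuma, first leaf emerged) were sprayed to run-off with compound in acetone/water containing Triton X-100 and inoculated with Z. tritici spores before or after treatment. Percent disease control comes from 0–100% severity on treated versus untreated plants.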

In the next experiment the test system is Puccinia triticina. The experiment can be described thus: Wheat Brown Rust (PUCCRT) fungicidal activity. Type of experiment: in vivo. The note with it: for pest or weed control at 100 ppm: High Volume application; for pest or weed control at 121.5 g/ha: Low Volume application, 121.5 g/H. Summed up: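 Disease severity (0–100%) on first leaves compared with untreated plants gives percent control. Plants (wheat var. Yuma) received spore inoculum before or after run-off spraying with compound in acetone/Triton X-100 water, held overnight at 22° C, 100% RH, then in a 24° C greenhouse.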

Setting [1] is: 24 h, 1 day protectant, read-out: PUCCRT disease control, 1DP (1 Day Protectant).
The mark [2] stands for this setting: 72 h, 3 day curative, read-out: PUCCRT disease control, 3DC (3 Day Curative).
The mark [3] stands for this setting: 24 h, wheat leaf blotch, 1 day protectant, read-out: SEPTTR disease control, 1DP (1 Day Protectant).
The mark [4] stands for this setting: 72 h, wheat leaf blotch, 3 day curative, read-out: SEPTTR disease control, 3DC (3 Day Curative).
[5] abbreviates: 24 h, High Volume application, 100 ppm, wheat leaf blotch, 1 day protectant, read-out: SEPTTR disease control, 1DP (1 Day Protectant).
The mark [6] stands for this setting: 72 h, High Volume application, 100 ppm, wheat leaf blotch, 3 day curative, read-out: SEPTTR disease control, 3DC (3 Day Curative).

For `CCC[C@H]1CCCC[C@H](NC(=O)c2nccc(OC)c2O)C(=O)O[C@@H](C)[C@@H]1OCC(C)C` [compound 105, 3-hydroxy-N-((3S,8S,9R,10S)-9-isobutoxy-10-methyl-2-oxo-8-propyloxecan-3-yl)-4-methoxypicolinamide], the pest or weed control at 100 ppm was below 80% in the experiment with Zymoseptoria tritici (24 h, read-out: SEPTTR disease control, 1DP (1 Day Protectant)); below 80% with Zymoseptoria tritici (72 h, read-out: SEPTTR disease control, 3DC (3 Day Curative)); below 80% in the experiment with Puccinia triticina (setting [1]); below 80% in the experiment with Puccinia triticina (setting [2]).

Consider `CC[C@H]1CCOC[C@H](NC(=O)c2nccc(OC)c2OCOC(C)=O)C(=O)O[C@@H](C)[C@@H]1Oc1ccccc1` [Compound 69], for which the pest or weed control at 121.5 g/ha with Zymoseptoria tritici (setting [3]), with Zymoseptoria tritici (setting [4]), in the experiment on Puccinia triticina (setting [1]) and in the experiment with Puccinia triticina (setting [2]) was above 80% in each case.

For `C[C@@H]1OC(=O)[C@@H](NC(=O)c2ncccc2O)CCCC[C@H](CC2CCCC2)[C@H]1Oc1ccccc1` [Compound 120], the pest or weed control at 100 ppm with Zymoseptoria tritici (setting [5]) is below 80%; in the experiment with Zymoseptoria tritici (setting [6]) it was above 80%; with Puccinia triticina (setting [1]), above 80%.

Take `CCCO[C@@H]1[C@@H](CC2CCCC2)CCCC[C@H](NC(=O)c2nccc(OC)c2OCOC(C)=O)C(=O)O[C@H]1C` [Compound 57]: the results for the pest or weed control at 121.5 g/ha in the experiment on Zymoseptoria tritici (setting [3]), in the experiment on Puccinia triticina (setting [1]) and in the experiment on Puccinia triticina (setting [2]) were below 80%, above 80% and below 80%, respectively.

Consider `COc1ccnc(C(=O)N[C@H]2COCC[C@H](Cc3ccc(F)cc3)[C@@H](Oc3ccccc3)[C@H](C)OC2=O)c1OCOC(C)=O` [Compound 72], for which the pest or weed control at 121.5 g/ha in the experiment on Zymoseptoria tritici (setting [3]), with Zymoseptoria tritici (setting [4]), in the experiment with Puccinia triticina (setting [1]) and in the experiment with Puccinia triticina (setting [2]) was above 80% throughout.

Turning to `COc1ccnc(C(=O)N[C@H]2CCCC[C@H](CC3CCCC3)[C@@H](OC(=O)C(C)C)[C@H](C)OC2=O)c1O` [Compound 123], the pest or weed control at 100 ppm in the experiment with Zymoseptoria tritici (setting [6]) and with Puccinia triticina (setting [1]) was below 80% throughout.

With `COc1ccnc(C(=O)N[C@H]2COCC[C@H](Cc3ccccc3)[C@@H](OCC(C)C)[C@H](C)OC2=O)c1O` [Compound 101], the pest or weed control at 100 ppm with Zymoseptoria tritici (setting [5]), with Zymoseptoria tritici (setting [6]), in the experiment with Puccinia triticina (setting [1]) and with Puccinia triticina (setting [2]) was below 80% throughout.

In the case of `COc1ccnc(C(=O)N[C@H]2CCOC[C@H](OC(=O)C(C)C)[C@@H](Oc3ccccc3)[C@H](C)OC2=O)c1O` [Compound 117], the pest or weed control at 100 ppm was above 80% with Zymoseptoria tritici (setting [5]), below 80% in the experiment on Zymoseptoria tritici (setting [6]) and below 80% in the experiment on Puccinia triticina (setting [1]).

Take `COc1ccnc(C(=O)N[C@H]2CCCC[C@H](OC)[C@@H](OC)[C@H](C)OC2=O)c1OC(C)=O` [Compound 27]: the pest or weed control at 121.5 g/ha with Zymoseptoria tritici (setting [3]) was below 80%; in the experiment with Puccinia triticina (setting [1]) it was above 80%; in the experiment with Puccinia triticina (setting [2]), above 80%.

For the compound `COc1ccnc(C(=O)N[C@H]2CCOC[C@H](Oc3ccccc3)[C@@H](OCC(C)C)[C@H](C)OC2=O)c1OCOC(C)=O` [Compound 46], the pest or weed control at 121.5 g/ha was above 80% in the experiment with Zymoseptoria tritici (setting [3]), below 80% with Zymoseptoria tritici (setting [4]), above 80% with Puccinia triticina (setting [1]) and below 80% in the experiment with Puccinia triticina (setting [2]).

As to `C=CCO[C@@H]1[C@@H](CC2CCCC2)CCCC[C@H](NC(=O)c2nccc(OC)c2O)C(=O)O[C@H]1C` [Compound 122], the pest or weed control at 100 ppm with Zymoseptoria tritici (setting [5]), with Zymoseptoria tritici (setting [6]) and with Puccinia triticina (setting [1]) was below 80% each time.

Consider `COc1ccnc(C(=O)N[C@H]2COCC[C@H](Cc3ccc(F)cc3)[C@@H](OCC3CC3)[C@H](C)OC2=O)c1OC(C)=O` [Compound 77], for which the pest or weed control at 121.5 g/ha is above 80% with Zymoseptoria tritici (setting [3]), below 80% in the experiment with Zymoseptoria tritici (setting [4]), above 80% with Puccinia triticina (setting [1]) and above 80% with Puccinia triticina (setting [2]).

Consider `C=CCO[C@@H]1[C@@H](CC2CCCC2)CCCC[C@H](NC(=O)c2nccc(OC)c2OCOC(C)=O)C(=O)O[C@H]1C` [Compound 53], for which the pest or weed control at 121.5 g/ha in the experiment on Zymoseptoria tritici (setting [4]) and with Puccinia triticina (setting [1]) was below 80% throughout.

Take `CC(=O)OCOc1cccnc1C(=O)N[C@H]1CCCC[C@H](CC2CCCC2)[C@@H](Oc2ccccc2)[C@H](C)OC1=O` [Compound 49]: the figures for the pest or weed control at 100 ppm with Zymoseptoria tritici (setting [5]), in the experiment on Zymoseptoria tritici (setting [6]) and with Puccinia triticina (setting [1]) were below 80%, below 80% and above 80%, respectively. Also, the figures for the pest or weed control at 121.5 g/ha in the experiment on Zymoseptoria tritici (setting [3]), in the experiment with Puccinia triticina (setting [1]) and in the experiment on Puccinia triticina (setting [2]) were below 80%, above 80% and below 80%, respectively.

On to `CCC[C@H]1CCCC[C@H](NC(=O)c2nccc(OC)c2OCOC(C)=O)C(=O)O[C@@H](C)[C@@H]1OCC(C)C` [compound 30, ((2-(((3S,8S,9R,10S)-9-isobutoxy-10-methyl-2-oxo-8-propyloxecan-3-yl)carbamoyl)-4-methoxypyridin-3-yl)oxy)methyl acetate], for which the pest or weed control at 121.5 g/ha is below 80% in the experiment with Zymoseptoria tritici (setting [3]), below 80% with Zymoseptoria tritici (setting [4]), above 80% with Puccinia triticina (setting [1]) and below 80% with Puccinia triticina (setting [2]).

Regarding `COc1ccnc(C(=O)N[C@H]2CCCC[C@H](Oc3ccccc3)[C@@H](Oc3ccccc3)[C@H](C)OC2=O)c1O` [Compound 98], the pest or weed control at 100 ppm in the experiment on Zymoseptoria tritici (setting [5]) is above 80%; with Zymoseptoria tritici (setting [6]), below 80%; in the experiment with Puccinia triticina (setting [1]), above 80%; with Puccinia triticina (setting [2]) it was below 80%.

As for `COc1ccnc(C(=O)N[C@H]2COCC[C@H](Cc3ccc(F)cc3)[C@@H](Oc3ccccc3)[C@H](C)OC2=O)c1OC(C)=O` [Compound 71], the pest or weed control at 121.5 g/ha with Zymoseptoria tritici (setting [3]), in the experiment on Zymoseptoria tritici (setting [4]), in the experiment with Puccinia triticina (setting [1]) and in the experiment with Puccinia triticina (setting [2]) was above 80% throughout.

Turning to `COc1ccnc(C(=O)N[C@H]2CCCC[C@H](OCc3ccccc3)[C@@H](OCc3ccccc3)[C@H](C)OC2=O)c1OCOC(C)=O` [Compound 8], the pest or weed control at 100 ppm is above 80% with Zymoseptoria tritici (setting [5]), below 80% in the experiment on Zymoseptoria tritici (setting [6]), above 80% in the experiment with Puccinia triticina (setting [1]) and above 80% in the experiment on Puccinia triticina (setting [2]). The pest or weed control at 121.5 g/ha in the experiment on Zymoseptoria tritici (setting [3]), in the experiment with Zymoseptoria tritici (setting [4]), in the experiment with Puccinia triticina (setting [1]) and in the experiment on Puccinia triticina (setting [2]) was above 80% in each case.

Regarding `COc1ccnc(C(=O)N[C@H]2CCCC[C@H](OC3CCCC3)[C@@H](OC)[C@H](C)OC2=O)c1O` [Compound 108], the pest or weed control at 100 ppm is below 80% in the experiment on Zymoseptoria tritici (setting [5]), below 80% in the experiment on Zymoseptoria tritici (setting [6]), below 80% in the experiment with Puccinia triticina (setting [1]) and above 80% with Puccinia triticina (setting [2]).

`COc1ccnc(C(=O)N[C@H]2CCCC[C@H](Cc3ccccc3)[C@@H](Oc3ccccc3)[C@H](C)OC2=O)c1OCOC(C)=O` [Compound 62]: the pest or weed control at 121.5 g/ha in the experiment on Zymoseptoria tritici (setting [3]) is above 80%; in the experiment on Zymoseptoria tritici (setting [4]) it was above 80%; in the experiment with Puccinia triticina (setting [1]), above 80%; with Puccinia triticina (setting [2]) it was below 80%.

For `COc1ccnc(C(=O)N[C@H]2CCCC[C@H](CC3CCCC3)[C@@H](OC(=O)C(C)C)[C@H](C)OC2=O)c1OCOC(C)=O` [Compound 54], the figures for the pest or weed control at 121.5 g/ha in the experiment with Zymoseptoria tritici (setting [3]), with Puccinia triticina (setting [1]) and in the experiment with Puccinia triticina (setting [2]) were above 80%, above 80% and below 80%, respectively.

Regarding `COc1ccnc(C(=O)N[C@H]2CCOC[C@H](Oc3ccccc3)[C@@H](Oc3ccccc3)[C@H](C)OC2=O)c1OC(C)=O` [Compound 47], the pest or weed control at 121.5 g/ha in the experiment on Zymoseptoria tritici (setting [3]), with Zymoseptoria tritici (setting [4]), with Puccinia triticina (setting [1]) and with Puccinia triticina (setting [2]) was above 80% in each case.

`COc1ccnc(C(=O)N[C@H]2COCC[C@H](Cc3ccc(F)cc3)[C@@H](OC(=O)C(C)C)[C@H](C)OC2=O)c1OCOC(C)=O` [Compound 76]: the pest or weed control at 121.5 g/ha in the experiment with Zymoseptoria tritici (setting [3]), in the experiment with Zymoseptoria tritici (setting [4]), in the experiment on Puccinia triticina (setting [1]) and in the experiment on Puccinia triticina (setting [2]) was above 80% in each case.

For the compound `COc1ccnc(C(=O)N[C@H]2CCCC[C@H](Oc3ccccc3)[C@@H](Oc3ccccc3)[C@H](C)OC2=O)c1OC(C)=O` [Compound 25], the pest or weed control at 121.5 g/ha was above 80% in the experiment with Zymoseptoria tritici (setting [3]), below 80% in the experiment with Zymoseptoria tritici (setting [4]), above 80% with Puccinia triticina (setting [1]) and below 80% in the experiment on Puccinia triticina (setting [2]).

Turning to `COc1ccnc(C(=O)N[C@H]2CCCC[C@H](CC3CCCC3)[C@@H](OC)[C@H](C)OC2=O)c1OC(C)=O` [Compound 59], the figures for the pest or weed control at 121.5 g/ha in the experiment with Zymoseptoria tritici (setting [3]), with Puccinia triticina (setting [1]) and in the experiment on Puccinia triticina (setting [2]) were below 80%, above 80% and above 80%, respectively.

Turning to `CC[C@H]1CCOC[C@H](NC(=O)c2nccc(OC)c2OCOC(C)=O)C(=O)O[C@@H](C)[C@@H]1OC(=O)C1CC1` [Compound 79], the pest or weed control at 121.5 g/ha in the experiment on Zymoseptoria tritici (setting [3]), with Puccinia triticina (setting [1]) and in the experiment on Puccinia triticina (setting [2]) was above 80% each time.
